From patent publication US11549950B2, “Cryptic metabolites and method for activating silent biosynthetic gene clusters in diverse microorganisms” (The Trustees of Princeton University, priority 2017, dated 2023)

What was measured:
Assay type in all cases: cell-based
[1] = system: Amycolatopsis keratiniphila NRRL B24117; assay: HiTES-IMS elicitor screen and validation, cryptic metabolites of A. keratiniphila; conditions: for induction of compound with m/z 1286 / elicitation of keratinimicin A (m/z 1811) synthesis / induction of compound with m/z 1425: HiTES-IMS, 502-member natural products library; for elicitation of keratinimicin A and keratinicyclin B, follow-up experiments: 7.8 μM vincamine, 2 μM Dhe, HR-MS
Method: (§1) In other examples, freshly-collected spores of S. canus or A. keratiniphila (˜10^7) were transferred to 50 mL YEME medium (3% (w/v) yeast extract, 5% peptone, 3% malt extract, 1% glucose, 34% sucrose, and 5 mM MgCl2.6H2O) in a 250 mL Erlenmeyer flask fitted with a stainless-steel spring and cultured at 30° C./250 rpm for 3 days. Mycelia were then collected by centrifugation (10 min, 3000 g, RT) and diluted into 300 mL of R4 medium to give a final concentration of 0.05% (w/v). R4 medium^1 consisted of 0.5% (w/v) glucose, 0.1% yeast extract, 0.5% MgCl2.6H2O, 0.2% CaCl2.2H2O, 0.15% proline, 0.118% valine, 0.28% TES, 50 mg/L casamino acid, 100 mg/L K2SO4, and 1× trace element solution, which contains 40 mg/L ZnCl2, 200 mg/L FeCl3.6H2O, 10 mg/L CuCl2.2H2O, 10 mg/L MnCl2.4H2O, 10 mg/L Na2B4O7.10H2O, and 10 mg/L (NH4)6Mo7O24.4H2O). Subsequently 300 μL were dispensed into six deep-well 96-well plates using a MultiFlo Microplate Dispenser. The wells were supplemented with candidate elicitors from the same 502-member natural products library used above with the aid of a CyBi-Well automated liquid transfer robot. Each well received 0.85 μL of an elicitor (from a stock concentration of 10 mM). The plates were sealed with air-permeable membranes and grown at 30° C./250 rpm. After 5 days, the samples were desalted as described above for P. protegens.
(§2) In one example, a laser ablation electrospray ionization (LAESI) DP1000 system (Protea Bioscience) coupled to a LTQ XL mass spectrometer (Thermo) was used for IMS analysis. The extension tube connecting the two instruments was kept at 130° C. with an external heater and the sample stage was kept at 10° C. during analysis. Sheath gas flow was set to 2.0 L/h. Eighty laser pulses were applied to each well to ablate samples using an 80% laser energy setting (˜850 μJ) and a 10 Hz frequency. A solution of 2:1 MeCN/water with 0.1% acetic acid (v/v) was supplied as the electrospray solution by a syringe pump running at a flow rate of 1 μL/min. The emitter was connected to high voltage power operating at +4000V or +4500V in positive ion detection mode. All data were visualized in ProteaPlot software.
In one example, after data collection, the signals observed in each well were extracted using GMSU-LAESI software (Gubbs, Inc), which gave all m/z values and the corresponding intensities per well (i.e. per elicitor). The data were binned in 1 m/z units for 3D-plotting. Signals with an intensity lower than a set threshold were not included in the 3D plots. The data were plotted in MatLab using the bar3 function. The component 2D plots were extracted from the corresponding 3D data in MatLab and plotted in Excel. The 2D plots were normalized to the highest intensity peak. Each signal was correlated with an elicitor.
Application of HiTES-IMS to Rare Actinomycetes. The disclosed approach was also applied to rare actinomycetes, a group of bacteria that account for some structurally fascinating and functionally potent metabolites, including the antibiotic of-last-resort vancomycin as well as the anticancer agent calicheamicin. Rare actinomycetes are an ideal test case for HiTES-IMS because in addition to their abundance of silent BGCs, they are difficult to manipulate genetically, thus all but precluding transcriptional reporter assays. Amycolatopsis keratiniphila NRRL B24117 were chosen as a test case. Its genome has not been sequenced, but efforts to find further BGCs that encode glycopeptide antibiotics (GPAs) using PCR had shown that it contains a vancomycin-like BGC, though a product has not yet been reported. A. keratiniphila was subjected to HiTES-IMS and obtained the metabolome shown, focusing on the mass range of typical GPAs (FIG. 9A). […] Additionally, a compound with m/z 1425 was induced by similar elicitors, including galangin and evodiamine (FIG. 10B). […]

[2] = system: Pseudomonas protegens Pf-5; assay: HiTES-IMS elicitor screen and flask validation, orfamide production; conditions: for elicitation of orfamide production: HiTES-IMS, 502-member natural products library, 96-well plates
Method: In one example, P. protegens was streaked out onto an LB-agar plate from frozen culture stocks and grown at 30° C. overnight. Colonies were used to inoculate 5 mL of LB in a 14 mL sterile culture tube, which was cultured 12-13 h at 30° C./250 rpm. The overnight culture was then used to inoculate 550 mL LB in a sterile Erlenmeyer flask to an initial optical density at 600 nm (OD600 nm) of 0.01. The culture was distributed into six sterile, deep-well 96-well plates (0.9 mL per well) using a MultiFlo Microplate Dispenser (BioTek). Subsequently, elicitors were added from a commercially-available 502-member natural products library (Enzo Scientific, cat #BML-2865) using a CyBi-Well automated liquid transfer robot (CyBio). Each well received 2.5 μL of an elicitor (from a stock concentration of 10 mM). The plates were sealed with air-permeable membranes and grown at 25° C./200 rpm. After 44 h, the plates were spun down, supernatants loaded onto a 96-well Strata C8-resin (Phenomenex), and the material eluted with 600 μL of 50% and 600 μL 100% MeCN into fresh 96 well plates. The eluates were then dried in a speedvac and resuspended in 30 μL of 40% MeCN (in water).
In one example, a laser ablation electrospray ionization (LAESI) DP1000 system (Protea Bioscience) coupled to a LTQ XL mass spectrometer (Thermo) was used for IMS analysis. The extension tube connecting the two instruments was kept at 130° C. with an external heater and the sample stage was kept at 10° C. during analysis. Sheath gas flow was set to 2.0 L/h. […]
As another example, Orfamides are lowly-expressed metabolites isolated from Pseudomonas protegens Pf-5 (hereafter P. protegens). […] The resulting metabolomes were analyzed using laser ablation-coupled electrospray ionization MS (LAESI-MS), an emerging method in which a mid-IR laser beam generates an ablation plume of metabolites that are ionized by an electrospray and introduced into the mass spectrometer. […] No signals were detected below m/z 1250 and above m/z 1650. […]

[3] = system: Amycolaptopsis sp. B-24117; assay: LAESI-MS elicitor screen (FIG. 20); conditions: concentration of 30 μM each
Method: In another example, to commence a screen, Amycolaptopsis sp. B-24117 spore stocks were used to inoculate 100 mL of R4 medium in a 500 mL Erlenmeyer flask (approx. 10^6 spores). These were grown overnight and then dispensed into 5×95 CORNING® COSTAR® 96 well cell culture plates using a BioTek MULTIFLO™ microplate dispenser. 150 μL was dispensed into each well, which were then supplemented with each 1 μL from the Natural Products small molecule library (Enzo Scientific). The plates were grown again at 30° C. and 250 rpm for 4 days before being imaged using a Laser Ablation Electrospray Mass Spectrometer (LAESI-MS), which consisted of a Protea Biosciences LAESI® DP-1000 module coupled to a THERMO SCIENTIFIC™ LTQ mass spectrometer. Imaging of each plate was conducted as per manufacturer instructions using 1:1 MeCN/water at a flow rate of 1 μL/min to ablate the samples into the mass spectrometer. The spectrum was collected for 8 seconds per well. The data were then analyzed using ProteaPlot software, searching for mass ions that were induced by elicitors and absent in untreated samples. Referring to FIG. 20, this led to identification of a mass ion (reference 230, m/s 1810, keratinimicin A).

[4] = system: Streptomyces canus NRRL B3980; assay: HiTES-IMS elicitor screen and flask validation, cryptic metabolites of S. canus
Method: as §1, §2
In one example, after data collection, the signals observed in each well were extracted using GMSU-LAESI software (Gubbs, Inc), which gave all m/z values and the corresponding intensities per well (i.e. per elicitor). The data were binned in 1 m/z units for 3D-plotting. […]
Application of HiTES-IMS to Streptomycetes. […] Three clusters of peaks, representing three compound families appeared to be elicited: compounds were detected with m/z ranging from 1260-1295, which further analysis identified as the amphomycins. […] A second set of induced compounds was also detected with m/z ranging from 1220-1245. […]

[5] = HiTES-IMS, 502-member natural products library

With `CC[C@H]1[C@@H]2C[C@H]3[C@@H]4N(C)c5ccccc5[C@]45C[C@@H]([C@H]2[C@H]5O)N3[C@@H]1O` [ajmaline] the “induction of compound with m/z 1286” value [1] was “induced”.

In the case of `C[C@@]12CCc3occc3[C@H]1CC[C@@]13C[C@@H](CC[C@H]12)[C@@](O)(CO)C3` [cafestol], the “elicitation of orfamide production” value [2] is reported as “Optimal production” and the “induction of orfamide A” value ([2]; flask cultures, HPLC-MS, 22 μM) is reported as “stimulatory activity was further confirmed”.

With `CC(C)[C@@]1(NC(=O)[C@@H]2C[C@@H]3c4cccc5[nH]cc(c45)C[C@H]3N(C)C2)O[C@@]2(O)[C@@H]3CCCN3C(=O)[C@H](Cc3ccccc3)N2C1=O` [dihydroergocristine] the “elicitation of keratinimicin A and keratinicyclin B, follow-up experiments” value [1] was “strong stimulatory activity”, the “elicitation of keratinimicin A (m/z 1811) synthesis” value [1] was “most effective elicitors” and the “elicitation of mass ion m/s 1810, keratinimicin A” value [3] was “best elicitors”.

In the case of `O=c1c(O)c(-c2ccccc2)oc2cc(O)cc(O)c12` [galangin], the “induction of compound with m/z 1286” value [1] is reported as “induced” and the “induction of compound with m/z 1425” value [1] is reported as “induced”.

In the case of `O=C1Cc2c([nH]c3ccc(Br)cc23)-c2ccccc2N1` [kenpaullone], the “elicitation of canucin A (m/z 1579) synthesis” value [4, 5] is reported as “most effective elicitor” and the “induction of canucin A and B” value ([4]; validation, flask cultures, 17 μM) is reported as “strong induction”.

For `O=c1c(O)c(-c2ccc(O)cc2O)oc2cc(O)cc(O)c12` [morin], the “elicitation of amphomycins (m/z 1260-1295)” value [4, 5] was “best elicitors”.

For `C=C[C@H]1C[N@@]2CC[C@H]1C[C@H]2[C@H](O)c1ccnc2ccc(OC)cc12` [quinine], the “elicitation of amphomycins (m/z 1260-1295)” value [4, 5] was “best elicitors”.

In the case of `O=C1c2ccccc2-n2c1nc1ccccc1c2=O` [tryptanthrin], the “elicitation of mass ion m/s 1810, keratinimicin A” value [3] is reported as “best elicitors”.

With `CC[C@]12CCCN3CCc4c(n(c5ccccc45)[C@@](O)(C(=O)OC)C1)[C@@H]32` [vincamine] the “elicitation of keratinimicin A and keratinicyclin B, follow-up experiments” value [1] was “strong stimulatory activity” and the “elicitation of keratinimicin A (m/z 1811) synthesis” value [1] was “most effective elicitors”.

For `CCC1=C[C@@H]2CN(C1)Cc1c([nH]c3ccccc13)[C@@](C(=O)OC)(c1cc3c(cc1OC)N(C)[C@H]1[C@@](O)(C(=O)OC)[C@H](OC(C)=O)[C@]4(CC)C=CCN5CC[C@]31[C@@H]54)C2` [vinorelbine], the “elicitation of orfamide production” value [2] was “Optimal production”.

In the case of evodiamine, the “induction of compound with m/z 1286” value [1] is reported as “induced” and the “induction of compound with m/z 1425” value [1] is reported as “induced”.
